Experimental data: the supplement of paper PMC10307832

Tests used:
Assay in all cases: relative viability (nuclei count vs DMSO), 5 days (fraction); higher = more cells survive
Metformin + Dasatinib = compound: CN(C)C(=N)NC(=N)N [Metformin] + Cc1nc(Nc2ncc(C(=O)Nc3c(C)cccc3Cl)s2)cc(N2CCN(CCO)CC2)n1 [Dasatinib] (partner 0.075 µM)
In short: (§1)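 Lung cancer cell lines were pin-tool dosed in 1536-well plates on the day after seeding, with either a lone drug or a fixed anchor-drug dose plus five library-drug doses (not always all listed) in √10 steps. Nuclei were counted on 4× images after 5 days. Relative viability is the ratio of treated-well to vehicle-well nuclei counts, with each value a median of duplicate plates.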

Metformin + Alpelisib = compound: CN(C)C(=N)NC(=N)N [Metformin] + Cc1nc(NC(=O)N2CCC[C@H]2C(N)=O)sc1-c1ccnc(C(C)(C)C(F)(F)F)c1 [Alpelisib] (partner 2 µM)
In short: as §1

Apatinib + Phenformin = compound: N#CC1(c2ccc(NC(=O)c3cccnc3NCc3ccncc3)cc2)CCCC1 [Apatinib] + N=C(N)NC(=N)NCCc1ccccc1 [Phenformin] (partner 250 µM)
In short: as §1

Apatinib + Foretinib = compound: N#CC1(c2ccc(NC(=O)c3cccnc3NCc3ccncc3)cc2)CCCC1 [Apatinib] + COc1cc2c(Oc3ccc(NC(=O)C4(C(=O)Nc5ccc(F)cc5)CC4)cc3F)ccnc2cc1OCCCN1CCOCC1 [Foretinib] (partner 0.25 µM)
In short: as §1

Cell Line	relative viability (Metformin + Dasatinib; first compound 10 µM)	relative viability (Metformin + Dasatinib; first compound 31.62 µM)	relative viability (Metformin + Dasatinib; first compound 100 µM)	relative viability (Metformin + Dasatinib; first compound 316.23 µM)	relative viability (Metformin + Dasatinib; first compound 1000 µM)	relative viability (Metformin + Alpelisib; first compound 10 µM)	relative viability (Metformin + Alpelisib; first compound 31.62 µM)	relative viability (Metformin + Alpelisib; first compound 100 µM)	relative viability (Metformin + Alpelisib; first compound 316.23 µM)	relative viability (Metformin + Alpelisib; first compound 1000 µM)	relative viability (Apatinib + Phenformin; first compound 0.08 µM)	relative viability (Apatinib + Phenformin; first compound 0.253 µM)	relative viability (Apatinib + Phenformin; first compound 0.8 µM)	relative viability (Apatinib + Phenformin; first compound 2.53 µM)	relative viability (Apatinib + Phenformin; first compound 8 µM)	relative viability (Apatinib + Foretinib; first compound 0.08 µM)	relative viability (Apatinib + Foretinib; first compound 0.253 µM)	relative viability (Apatinib + Foretinib; first compound 0.8 µM)	relative viability (Apatinib + Foretinib; first compound 2.53 µM)	relative viability (Apatinib + Foretinib; first compound 8 µM)
NCI-H1993	0.764	0.59	0.665	0.639	0.703	0.634	0.67	0.643	0.62	0.705	0.533	0.555	0.528	0.485	0.567	0.85	0.766	0.808	0.702	0.687
NCI-H520	0.24	0.195	0.265	0.195	0.217	0.764	0.855	0.948	0.665	0.86	0.661	0.567	0.56	0.391	0.391	0.865	0.72	0.844	0.558	0.651
SK-MES-1	0.252	0.41	0.338	0.314	0.321	0.814	0.802	0.732	0.822	0.909	0.699	0.615	0.616	0.574	0.451	1.02	0.935	0.967	0.838	0.896
NCI-H2085	0.327	0.336	0.333	0.306	0.358	0.956	0.955	0.944	0.903	0.985	0.707	0.715	0.752	0.65	0.656	0.991	1.05	0.79	0.854	0.817
NCI-H441	–	0.577	0.609	0.385	0.544	0.566	–	0.765	–	0.572	0.849	0.762	0.827	0.784	0.76	0.872	1.14	0.79	0.904	0.732
PC-3 [JPC-3]	0.944	0.889	0.979	0.886	0.986	0.92	0.971	1.03	0.949	0.965	0.471	0.468	0.474	0.448	0.46	1.02	1	0.986	0.925	0.853
NCI-H1944	0.22	0.227	0.252	0.254	0.246	0.936	1.01	1.06	0.886	0.973	0.209	0.207	0.179	0.18	0.159	0.869	0.942	0.691	0.807	0.603
CAL-12T	0.471	0.58	0.479	0.357	0.515	–	1.21	1.08	0.812	0.907	0.636	0.638	0.565	0.542	0.467	1.3	1.14	1.11	0.992	0.974
